Source: US8293790B2, “Pharmaceutical compositions comprising DGLA and benzoyl peroxide and methods of use thereof” (Dignity Sciences Limited, priority 2011, dated 2012)
≈ marks a conversion by molar mass, not a printed value. Where two headings read alike, the source gives them in different places. Marks after values point to notes of the source that are not given here. Each block holds one compound with its values, some of them ahead of it.

Columns and labels:
P. acnes [1] = test: Agar dilution method: growth of P. acnes and MIC, compounds tested singly; type: cell-based, Propionibacterium acnes; parameters: key to Growth Index (+++, ++, +, −) Plate 1 / Growth Index (+++, ++, +, −) Plate 2 / Growth Index (+++, ++, +, −) Plate 3 / Growth Index (+++, ++, +, −) Avg: +++: confluent growth (comparable to control); ++: less confluent growth; +: marked reduction in growth to multiple tiny, single colonies; −: no growth present; MIC: unit: mg/mL; conditions: for MIC: compound alone
Method: (§1) Several compounds including fatty acids such as DGLA, 15-OHEPA, and 15-HETrE were tested to determine their capacity to inhibit the growth of P. acnes. In an exemplary method, an agar dilution method was used to determine the minimum inhibitory concentration (MIC) of each tested compound. Briefly, the agar dilution method involved preparing a series of concentrations of each compound (e.g., nicotinamide, benzoyl peroxide, adapalene, metronidazole, DGLA, 15-OHEPA, and 15-HETrE) in a Reinforced Clostridial Agar (RCA) media that facilitates growth of P. acnes under anaerobic conditions. An inoculum of P. acnes was prepared by incubation of P. acnes for approximately seven days at 35-37° C. to achieve a ≧1.0 OD600 inoculum of P. acnes in RCM broth. A portion of this inoculum was then added to the surface of each plate as a 10 μL spot and incubated at 35-37° C. for 72 hours or more. Growth of P. acnes was then observed and compared to control plates in which no compound has been added, and positive inhibition plates prepared with erythromycin. […] The growth of P. acnes in the presence of nicotinamide, benzoyl peroxide, adapalene, metronidazole, DGLA, 15-OHEPA, and 15-HETrE was determined with varying concentrations of the compound (see, Table 2). Next, the MIC was determined as the concentration at which a marked reduction (+) occurs in the appearance of growth on the test plate (as per Clinical and Laboratory Standards Institute M11-A7).

P. acnes [2] = test: Agar dilution method: growth of P. acnes and MIC, fatty acid compounds in combination with other compounds; type: cell-based, Propionibacterium acnes
Method: as §1, with “M11-A7). The compounds tested singly in Example 1 were tested in combination with one another to determine the capacity of the combination to inhibit the growth of P. acnes. In an exemplary method, the MIC was determined for each of the combination as described in Example 1. Briefly, test combinations included DGLA with nicotinamide, benzoyl peroxide, adapalene, or metronidazole; 15-HETrE with nicotinamide, benzoyl peroxide, adapalene, or metronidazole; and 15-OHEPA with nicotinamide, benzoyl peroxide, adapalene, or metronidazole. The tables below show the growth of P. acnes in the presence of 0.4 or 1.0 mg/mL DGLA with varying concentrations of nicotinamide, benzoyl peroxide, adapalene, or metronidazole (Table 3); the growth of P. acnes in the presence of 0.01 or 0.05 mg/mL 15-HETrE with varying concentrations of nicotinamide, benzoyl peroxide, adapalene, or metronidazole (Table 5); and the growth of P. acnes in the presence of 0.5 or 0.1 mg/mL 15-OHEPA with varying concentrations of nicotinamide, benzoyl peroxide, adapalene, or metronidazole (Table 7).” for “M11-A7).”

[3] = compound at 0.00001 mg/mL in agar
[4] = compound at 0.0001 mg/mL in agar
[5] = compound at 0.001 mg/mL in agar
[6] = Cutibacterium acnes, MIC = concentration with marked reduction (+) of growth, read-out: MIC (mg/mL) as per P-11-0007 or P-11-0008 Addendum A
[7] = compound at 0.010 mg/mL in agar
[8] = compound at 0.025 mg/mL in agar
[9] = compound at 0.050 mg/mL in agar
[10] = compound at 0.075 mg/mL in agar

Structure (SMILES): CCCCCC(O)/C=C/C=C\C/C=C\CCCCCCC(=O)O (stereo not drawn) [15-HETrE, 15-Hydroxy-eicosa-8(Z),11(Z),13(E)-trienoic acid]
effect on growth of P. acnes on its own (P. acnes [1]; 0.01 mg/ml): no effect on its own
Growth Index (+++, ++, +, −) Avg (P. acnes [1]; [3]): +++
Growth Index (+++, ++, +, −) Plate 1 (P. acnes [1]; [3]): +++
Growth Index (+++, ++, +, −) Plate 2 (P. acnes [1]; [3]): +++
Growth Index (+++, ++, +, −) Plate 3 (P. acnes [1]; [3]): +++
Growth Index (+++, ++, +, −) Avg (P. acnes [1]; [4]): +++
Growth Index (+++, ++, +, −) Plate 1 (P. acnes [1]; [4]): +++
Growth Index (+++, ++, +, −) Plate 2 (P. acnes [1]; [4]): +++
Growth Index (+++, ++, +, −) Plate 3 (P. acnes [1]; [4]): +++
Growth Index (+++, ++, +, −) Avg (P. acnes [1]; [5]): +++
Growth Index (+++, ++, +, −) Plate 1 (P. acnes [1]; [5]): +++
Growth Index (+++, ++, +, −) Plate 2 (P. acnes [1]; [5]): +++
Growth Index (+++, ++, +, −) Plate 3 (P. acnes [1]; [5]): +++
Growth Index (+++, ++, +, −) Avg (P. acnes [1]; compound at 0.01 mg/mL in agar): ++
Growth Index (+++, ++, +, −) Plate 1 (P. acnes [1]; compound at 0.01 mg/mL in agar): ++
Growth Index (+++, ++, +, −) Plate 2 (P. acnes [1]; compound at 0.01 mg/mL in agar): +++
Growth Index (+++, ++, +, −) Plate 3 (P. acnes [1]; compound at 0.01 mg/mL in agar): ++

MIC (P. acnes [1]; [6]): 0.05 to 0.075 mg/mL (≈ 157 to 236 µM)
Structure (SMILES): CCC=CCC(O)C=CC=CCC=CCC=CCCCC(=O)O (stereo not drawn) [15-OHEPA, 15-Hydroxy-eicosa-5,8,11,13,17-pentaenoic acid]
effect on growth of P. acnes on its own (P. acnes [1]; 0.05 mg/mL): no effect on its own
Growth Index (+++, ++, +, −) Avg (P. acnes [1]; [7]): +++
Growth Index (+++, ++, +, −) Plate 1 (P. acnes [1]; [7]): +++
Growth Index (+++, ++, +, −) Plate 2 (P. acnes [1]; [7]): +++
Growth Index (+++, ++, +, −) Plate 3 (P. acnes [1]; [7]): +++
Growth Index (+++, ++, +, −) Avg (P. acnes [1]; [8]): +++
Growth Index (+++, ++, +, −) Plate 1 (P. acnes [1]; [8]): +++
Growth Index (+++, ++, +, −) Plate 2 (P. acnes [1]; [8]): +++
Growth Index (+++, ++, +, −) Plate 3 (P. acnes [1]; [8]): +++
Growth Index (+++, ++, +, −) Avg (P. acnes [1]; [9]): +++
Growth Index (+++, ++, +, −) Plate 1 (P. acnes [1]; [9]): +++
Growth Index (+++, ++, +, −) Plate 2 (P. acnes [1]; [9]): +++
Growth Index (+++, ++, +, −) Plate 3 (P. acnes [1]; [9]): +++
Growth Index (+++, ++, +, −) Avg (P. acnes [1]; [10]): +
Growth Index (+++, ++, +, −) Plate 1 (P. acnes [1]; [10]): +
Growth Index (+++, ++, +, −) Plate 2 (P. acnes [1]; [10]): +
Growth Index (+++, ++, +, −) Plate 3 (P. acnes [1]; [10]): +

MIC (P. acnes [1]; [6]): > 0.8 mg/mL
MIC (P. acnes [1]; no unit in the sentence): > 0.8
MIC (mg/mL) with 0.05 mg/mL 15-HETrE spike (P. acnes [2]; 0.05 mg/mL 15-HETrE spike, itself an inhibitory concentration): <0.2 mg/mL
MIC (mg/mL) with 0.05 mg/mL 15-OHEPA spike (P. acnes [2]; 0.05 mg/mL 15-OHEPA spike): >0.8 mg/mL
MIC (mg/mL) with 0.1 mg/mL 15-OHEPA spike (P. acnes [2]; 0.1 mg/mL 15-OHEPA spike, itself an inhibitory concentration): <0.2 mg/mL
MIC (mg/mL) with 0.4 mg/mL dGLA spike (P. acnes [2]; 0.4 mg/mL dGLA spike, dGLA supplied by Sigma, cat# E4504): >0.6* mg/mL
MIC (mg/mL) with 1.0 mg/mL dGLA spike (P. acnes [2]; 1.0 mg/mL dGLA spike, dGLA supplied by Cayman, cat# 90230): >0.6* mg/mL
Structure (SMILES): COc1ccc(-c2ccc3cc(C(=O)O)ccc3c2)cc1C12CC3CC(CC(C3)C1)C2 [Adapalene, 6-[3-(1-adamantyl)-4-methoxyphenyl]-2-naphthoic acid]
Growth Index (+++, ++, +, −) Avg (P. acnes [1]; compound at 0.2 mg/mL in agar): +++
Growth Index (+++, ++, +, −) Plate 1 (P. acnes [1]; compound at 0.2 mg/mL in agar): +++
Growth Index (+++, ++, +, −) Plate 2 (P. acnes [1]; compound at 0.2 mg/mL in agar): +++
Growth Index (+++, ++, +, −) Plate 3 (P. acnes [1]; compound at 0.2 mg/mL in agar): +++
Growth Index (+++, ++, +, −) Avg (P. acnes [1]; compound at 0.4 mg/mL in agar): +++
Growth Index (+++, ++, +, −) Plate 1 (P. acnes [1]; compound at 0.4 mg/mL in agar): +++
Growth Index (+++, ++, +, −) Plate 2 (P. acnes [1]; compound at 0.4 mg/mL in agar): +++
Growth Index (+++, ++, +, −) Plate 3 (P. acnes [1]; compound at 0.4 mg/mL in agar): +++
Growth Index (+++, ++, +, −) Avg (P. acnes [1]; compound at 0.6 mg/mL in agar): ++
Growth Index (+++, ++, +, −) Plate 1 (P. acnes [1]; compound at 0.6 mg/mL in agar): ++
Growth Index (+++, ++, +, −) Plate 2 (P. acnes [1]; compound at 0.6 mg/mL in agar): ++
Growth Index (+++, ++, +, −) Plate 3 (P. acnes [1]; compound at 0.6 mg/mL in agar): +++
Growth Index (+++, ++, +, −) Avg (P. acnes [1]; compound at 0.8 mg/mL in agar): ++
Growth Index (+++, ++, +, −) Plate 1 (P. acnes [1]; compound at 0.8 mg/mL in agar): ++
Growth Index (+++, ++, +, −) Plate 2 (P. acnes [1]; compound at 0.8 mg/mL in agar): ++
Growth Index (+++, ++, +, −) Plate 3 (P. acnes [1]; compound at 0.8 mg/mL in agar): ++
growth of P. acnes in combination with 15-OHEPA compared with 15-OHEPA alone (P. acnes [2]; in combination with 15-OHEPA): did not reduce the growth of P. Acnes below that of 15 OHEPA used alone
growth of P. acnes in combination with DGLA compared with DGLA alone (P. acnes [2]; in combination with DGLA): did not reduce the growth of P. Acnes below that of DGLA used alone
